Laboratory results reported in ChEMBL document CHEMBL4130486, “Design, synthesis and immunological evaluation of novel amphiphilic desmuramyl peptides” (Eur J Med Chem, 2017).
Activity calls are given as the source filed them. The rule behind the calls is not given here.

Experiments:
THP-1 [1] = test: Immunomodulatory activity in human THP1 cells assessed as increase in ICAM1 expression at 20 uM incubated for 21 hrs by immunostaining and flow cytometry; format: functional, cell-based
THP-1 [2] = test: Immunomodulatory activity in PMA-differentiated human THP1 cells assessed as increase in ICAM1 expression by measuring fluorescence intensity at 20 uM incubated for 21 hrs by immunostaining and flow cytometry (reference value: 602.95 No unit); format: functional
THP-1 [3] = test: (§1) Immunomodulatory activity in PMA-differentiated human THP1 cells assessed as increase in LPS-induced ICAM1 expression by measuring fluorescence intensity at 20 uM pre-incubated for 1 hr before LPS stimulation and further incubated for 20 hrs by immunostaining and flow cytometry relative to LPS alone; format: functional, cell-based
THP-1 [4] = test: Immunomodulatory activity in PMA-differentiated human THP1 cells assessed as increase in TNFalpha production by measuring TNFalpha level at 15 uM incubated for 24 hrs by ELISA; format: functional
THP-1 [5] = test: Immunomodulatory activity in PMA-differentiated human THP1 cells assessed as increase in TNFalpha production at 30 uM incubated for 24 hrs by ELISA; format: functional, cell-based
THP-1 [6] = test: Immunomodulatory activity in human THP1 cells assessed as increase in LPS-induced ICAM1 expression at 1 to 32 uM uM incubated for 21 hrs by immunostaining and flow cytometry; format: functional, cell-based
THP-1 [7] = test: Immunomodulatory activity in PMA-differentiated human THP1 cells assessed as increase in TNFalpha production at 1 to 30 uM incubated for 24 hrs by ELISA; format: functional, cell-based
THP-1 [8] = test: Immunomodulatory activity in human THP1 cells assessed as increase in LPS-induced ICAM1 expression at 16 uM uM incubated for 21 hrs by immunostaining and flow cytometry; format: functional
THP-1 [9] = test: Immunomodulatory activity in PMA-differentiated human THP1 cells assessed as increase in LPS-induced ICAM1 expression by measuring fluorescence intensity at 8 uM pre-incubated for 1 hr before LPS stimulation and further incubated for 20 hrs by immunostaining and flow cytometry relative to LPS alone; format: functional
THP-1 [10] = test: as §1, with “at <=4” for “at 20”; format: functional, cell-based
THP-1 [11] = test: as §1, with “at =>16” for “at 20”; format: functional, cell-based
THP-1 [12] = test: Toxicity in PMA-differentiated human THP1 cells assessed as cell death at 0.1 to 64 uM by trypan blue dye based assay; conditions: thp-1, 64 µM

| SMILES | Activity (THP-1 [1]) | Flu intensity (THP-1 [2]) | Activity (THP-1 [3]) | Activity (THP-1 [4]) [pg/mL] | Activity (THP-1 [5]) | Activity (THP-1 [6]) | Activity (THP-1 [7]) | Activity (THP-1 [8]) | Activity (THP-1 [9]) | Activity (THP-1 [10]) | Activity (THP-1 [11]) | Activity (THP-1 [12]) |
| --- | --- | --- | --- | --- | --- | --- | --- | --- | --- | --- | --- | --- |
| CCCCOC(=O)[C@@H](CCC(N)=O)NC(=O)[C@H](C)NC(=O)[C@@H](C)O[C@H]1[C@H](O)[C@@H](CO)OC(O)[C@@H]1NC(C)=O (some centres not stated) [MURABUTIDE] | Active | 1436.05 | Active | 2694 | inactive |  |  |  |  |  |  |  |
| CCCCCCNC(=O)CC[C@@H](NC(=O)[C@H](C)NC(=O)COc1cccc(NCCCO)c1)C(N)=O | Active | 885.76 |  | 3622 | inactive | Active | Active |  |  |  |  |  |
| CCCCCCNC(=O)CC[C@@H](NC(=O)[C@H](C)NC(=O)COc1cccc(N(CCCO)CCCO)c1)C(N)=O | Active | 777.29 |  | 3606 | inactive | Active | Active | <=46% | <=33% | Active | inactive | Non-Toxic |
